# Results as given in ChEMBL document CHEMBL5728026, “Indole derivative used as CRTH2 inhibitor” (2020).
# Biological target: T1, Prostaglandin D2 receptor 2 (Homo sapiens, UniProt Q9Y5Y4)
# T1 sequence (Q9Y5Y4 whole entry): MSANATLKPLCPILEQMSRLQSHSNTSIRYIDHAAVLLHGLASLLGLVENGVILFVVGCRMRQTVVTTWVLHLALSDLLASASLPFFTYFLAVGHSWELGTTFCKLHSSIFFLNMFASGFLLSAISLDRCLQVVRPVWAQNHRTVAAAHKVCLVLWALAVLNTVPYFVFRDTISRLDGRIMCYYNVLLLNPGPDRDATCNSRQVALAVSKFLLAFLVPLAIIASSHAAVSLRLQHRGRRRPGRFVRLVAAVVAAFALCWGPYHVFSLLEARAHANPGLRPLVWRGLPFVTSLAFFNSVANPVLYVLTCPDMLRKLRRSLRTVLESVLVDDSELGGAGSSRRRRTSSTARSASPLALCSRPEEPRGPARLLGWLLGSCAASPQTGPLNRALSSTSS
# Test: Biological Activity Assay: Experimental Method:PathHunter CHO-K1 CRTH2 β-arrestin cells (DiscoverX, catalogue number 93-0291C2) grew under standard conditions, and were inoculated into a white-wall 384-well microplate at a density of 5,000 cells/well. 20 μL of Cell Plating Reagent 1 was used in each well. Before the test, the cells were incubated overnight at 37° C./5% CO2. A test compound was serially diluted in DMSO with a dilution factor of 3-fold to give 8 concentrations of the test compound. Shortly before the test, the serially diluted test compound was further diluted with the test buffer to 5 times of the test concentration. 5 μL of the further diluted test compound was added to the cells, and the cells were incubated for 30 min at 37° C. The concentration of the solvent was 1%. 5 μL of 6×EC80 agonist (PGD2) buffer was added to the cells, and the cells were incubated for 90 min at 37° C. Measured signals were generated by one-time addition of 15 μL (50% v/v) of PathHunter detection mixture reagent and subsequent one-hour incubation. The microplate was read through the chemiluminescent signals of PerkinElmer Envision™ reader. Biological activity of the test compound was analyzed by CBIS data analysis suite (ChemInnovation, CA), and was denoted as IC50 value.
row,IC50 [nM],SMILES
1,< 100,Cc1c(C2=CS(=O)(=O)c3ccccc32)c2cc(F)ccc2n1CC(=O)O
2,> 1000,Cc1c(Cc2ccc3c(c2)C(F)(F)CCS3(=O)=O)c2cccnc2n1CC(=O)O
3,> 1000,Cc1c(C2=CS(=O)(=O)c3ccc(F)cc32)c2cc(F)ccc2n1CC(=O)O
4,< 100,Cc1c(Cc2ccc3c(c2)N(C)CN(C)S3(=O)=O)c2cc(F)ccc2n1CC(=O)O
5,> 1000,O=C(O)Cn1c(-c2ccccc2)c(Cc2ccc3c(c2)CCS3(=O)=O)c2ccccc21
6,> 1000,Cc1c(Cc2ccc3c(c2)C(F)(F)CCS3(=O)=O)c2cnccc2n1CC(=O)O
7,< 100,CC1=Nc2cc(Cc3c(C)n(CC(=O)O)c4ccc(F)cc34)ccc2S(=O)(=O)N1
8,< 100,Cc1c(Cc2ccc3c(c2)N=CN(C)S3(=O)=O)c2cc(F)ccc2n1CC(=O)O
9,< 100,Cc1c(Cc2ccc3c(c2)C(C)(C)CS3(=O)=O)c2cc(F)ccc2n1CC(=O)O
10,< 100,Cc1c(Cc2ccc3c(c2)C(F)(F)CCS3(=O)=O)c2cc(F)ccc2n1CC(=O)O
11,< 100,Cc1c(C2=CS(=O)(=O)c3ccccc32)c2ccc(Cl)cc2n1CC(=O)O
12,< 100,Cc1c(C2=CS(=O)(=O)c3cc(Cl)ccc32)c2cc(F)ccc2n1CC(=O)O
13,> 1000,Cc1c(Cc2ccc3c(c2)CCS3(=O)=O)c2cc(NC(=O)C3CC3)ccc2n1CC(=O)O
14,< 100,Cc1c(C2=CS(=O)(=O)c3cc(C(F)(F)F)ccc32)c2cc(F)ccc2n1CC(=O)O
15,< 100,Cc1c(Cc2ccc3c(c2)C(F)(F)CN(C)S3(=O)=O)c2cc(F)ccc2n1CC(=O)O
16,< 100,Cc1c(C2=CCS(=O)(=O)c3ccccc32)c2cc(F)ccc2n1CC(=O)O
17,< 100,Cc1c(Cc2ccc3c(c2)CNS3(=O)=O)c2cc(F)ccc2n1CC(=O)O
18,< 100,Cc1c(C2=CS(=O)(=O)c3cc(-c4cc(F)cc(Cl)c4)ccc32)c2cc(F)ccc2n1CC(=O)O
19,< 100,Cc1c(Cc2cc3c(cc2C(F)(F)F)S(=O)(=O)N(C)CN3C)c2cc(F)ccc2n1CC(=O)O
20,> 1000,Cc1c(Cc2ccc3c(c2)CCS3(=O)=O)c2ccc(C(F)(F)F)cc2n1CC(=O)O

row,SMILES,IC50 [nM]
1,Cc1c(Cc2ccc3c(c2)C(F)(F)CCS3(=O)=O)c2cc(F)ccc2n1Cc1nn[nH]n1,> 1000
